From ChEMBL document CHEMBL5532691, “Anti-cancer activity and mechanism of flurbiprofen organoselenium compound RY-1-92 in non-small cell lung cancer” (RSC Med Chem, 2024)
pIC50: −log10 of the molar value.

What was measured:
A549 [1] = assay: Antiproliferative activity against human A549 cells assessed as inhibition of cell growth incubated for 48 hrs by MTT assay; format: functional, cell-based
NCI-H460 [2] = assay: Antiproliferative activity against human NCI-H460 cells assessed as inhibition of cell growth incubated for 48 hrs by MTT assay; format: functional, cell-based
BEAS-2B = assay: Cytotoxicity against human BEAS-2B cells assessed as reduction in cell viability at 3 to 300 uM measured after 48 hrs by MTT assay; format: toxicity, cell-based; settings: dose 3-300 µM
A549 [3] = assay: Induction of cell cycle arrest in human A549 cells assessed as accumulation of cells as G1 phase at 10 uM measured after 24 hrs by propidium iodide staining based flow cytometry analysis (reference value: 71.74%); format: functional
A549 [4] = assay: Induction of cell cycle arrest in human A549 cells assessed as accumulation of cells as G2 phase at 10 uM measured after 24 hrs by propidium iodide staining based flow cytometry analysis (reference value: 8.69%); format: functional
A549 [5] = assay: Induction of cell cycle arrest in human A549 cells assessed as accumulation of cells as S phase at 10 uM measured after 24 hrs by propidium iodide staining based flow cytometry analysis (reference value: 19.57%); format: functional
A549 [6] = assay: Induction of cell cycle arrest in human A549 cells assessed as accumulation of cells as G1 phase at 30 uM measured after 24 hrs by propidium iodide staining based flow cytometry analysis (reference value: 71.74%); format: functional
A549 [7] = assay: Induction of cell cycle arrest in human A549 cells assessed as accumulation of cells as G2 phase at 30 uM measured after 24 hrs by propidium iodide staining based flow cytometry analysis (reference value: 8.69%); format: functional
A549 [8] = assay: Induction of cell cycle arrest in human A549 cells assessed as accumulation of cells as S phase at 30 uM measured after 24 hrs by propidium iodide staining based flow cytometry analysis (reference value: 19.57%); format: functional
NCI-H460 [9] = assay: Induction of cell cycle arrest in human NCI-H460 cells assessed as accumulation of cells as G1 phase at 10 uM measured after 24 hrs by propidium iodide staining based flow cytometry analysis (Rvb =84.54%); format: functional
NCI-H460 [10] = assay: Induction of cell cycle arrest in human NCI-H460 cells assessed as accumulation of cells as G2 phase at 10 uM measured after 24 hrs by propidium iodide staining based flow cytometry analysis (reference value: 8.37%); format: functional
NCI-H460 [11] = assay: Induction of cell cycle arrest in human NCI-H460 cells assessed as accumulation of cells as S phase at 10 uM measured after 24 hrs by propidium iodide staining based flow cytometry analysis (reference value: 7.09%); format: functional
NCI-H460 [12] = assay: Induction of cell cycle arrest in human NCI-H460 cells assessed as accumulation of cells as G1 phase at 30 uM measured after 24 hrs by propidium iodide staining based flow cytometry analysis (reference value: 84.54%); format: functional
NCI-H460 [13] = assay: Induction of cell cycle arrest in human NCI-H460 cells assessed as accumulation of cells as G2 phase at 30 uM measured after 24 hrs by propidium iodide staining based flow cytometry analysis (reference value: 8.37%); format: functional
NCI-H460 [14] = assay: Induction of cell cycle arrest in human NCI-H460 cells assessed as accumulation of cells as S phase at 30 uM measured after 24 hrs by propidium iodide staining based flow cytometry analysis (reference value: 7.09%); format: functional
A549 [15] = assay: Induction of apoptosis in human A549 cells assessed as viable cells at 10 uM measured after 48 hrs by annexin V-FITC/PI staining based flow cytometry analysis (reference value: 80.26%); format: functional; settings: read-out: Activity
A549 [16] = assay: Induction of apoptosis in human A549 cells assessed as early apoptotic cells at 10 uM measured after 48 hrs by annexin V-FITC/PI staining based flow cytometry analysis (reference value: 0.59%); format: functional
A549 [17] = assay: Induction of apoptosis in human A549 cells assessed as late apoptotic cells at 10 uM measured after 48 hrs by annexin V-FITC/PI staining based flow cytometry analysis (reference value: 15.12%); format: functional
A549 [18] = assay: Induction of apoptosis in human A549 cells assessed as necrotic cells at 10 uM measured after 48 hrs by annexin V-FITC/PI staining based flow cytometry analysis (reference value: 4.03%); format: functional
A549 [19] = assay: Induction of apoptosis in human A549 cells assessed as viable cells at 30 uM measured after 48 hrs by annexin V-FITC/PI staining based flow cytometry analysis (reference value: 80.26%); format: functional; settings: read-out: Activity
A549 [20] = assay: Induction of apoptosis in human A549 cells assessed as early apoptotic cells at 30 uM measured after 48 hrs by annexin V-FITC/PI staining based flow cytometry analysis (reference value: 0.59%); format: functional
A549 [21] = assay: Induction of apoptosis in human A549 cells assessed as late apoptotic cells at 30 uM measured after 48 hrs by annexin V-FITC/PI staining based flow cytometry analysis (reference value: 15.12%); format: functional
A549 [22] = assay: Induction of apoptosis in human A549 cells assessed as necrotic cells at 30 uM measured after 48 hrs by annexin V-FITC/PI staining based flow cytometry analysis (reference value: 4.03%); format: functional
NCI-H460 [23] = assay: Induction of apoptosis in human NCI-H460 cells assessed as viable cells at 10 uM measured after 48 hrs by annexin V-FITC/PI staining based flow cytometry analysis (reference value: 91.81%); format: functional; settings: read-out: Activity
NCI-H460 [24] = assay: Induction of apoptosis in human NCI-H460 cells assessed as early apoptotic cells at 10 uM measured after 48 hrs by annexin V-FITC/PI staining based flow cytometry analysis (reference value: 0.32%); format: functional
NCI-H460 [25] = assay: Induction of apoptosis in human NCI-H460 cells assessed as late apoptotic cells at 10 uM measured after 48 hrs by annexin V-FITC/PI staining based flow cytometry analysis (reference value: 5.41%); format: functional
NCI-H460 [26] = assay: Induction of apoptosis in human NCI-H460 cells assessed as necrotic cells at 10 uM measured after 48 hrs by annexin V-FITC/PI staining based flow cytometry analysis (reference value: 2.47%); format: functional
NCI-H460 [27] = assay: Induction of apoptosis in human NCI-H460 cells assessed as viable cells at 30 uM measured after 48 hrs by annexin V-FITC/PI staining based flow cytometry analysis (reference value: 91.81%); format: functional; settings: read-out: Activity
NCI-H460 [28] = assay: Induction of apoptosis in human NCI-H460 cells assessed as early apoptotic cells at 30 uM measured after 48 hrs by annexin V-FITC/PI staining based flow cytometry analysis (reference value: 0.32%); format: functional

For CC(C(=O)NCCC[Se]C(F)(F)F)c1ccc(-c2ccccc2)c(F)c1 (stereo unspecified), the pIC50 (A549 [1]; A549, 48 h) was 4.38, the Activity (A549 [1]; dose 3-300 µM) was “Dose-Dependent Effect” and the pIC50 (NCI-H460 [2]; NCI-H460, 48 h) was 4.11. The Activity (NCI-H460 [2]; dose 3-300 µM) was “Dose-Dependent Effect”, the Activity (BEAS-2B) was “Toxic” and the Activity (A549 [3]) was 76.88%. The Activity (A549 [4]) was 9.29%, the Activity (A549 [5]) was 13.83% and the Activity (A549 [6]) was 7.45%. It also gave an Activity (A549 [7]) of 39.92%, an Activity (A549 [8]) of 52.63% and an Activity (NCI-H460 [9]) of 78.71%. It also gave an Activity (NCI-H460 [10]) of 10.69%, an Activity (NCI-H460 [11]) of 10.6% and an Activity (NCI-H460 [12]) of 5.73%. For the same molecule, the Activity (NCI-H460 [13]) was 83.13%, the Activity (NCI-H460 [14]) was 11.14% and the viability at 10 µM (A549 [15]) was 74.6%. It also gave an Activity (A549 [16]) of 0.53%, an Activity (A549 [17]) of 20.25% and an Activity (A549 [18]) of 3.99%. It also gave a viability at 30 µM (A549 [19]) of 55%, an Activity (A549 [20]) of 1.13% and an Activity (A549 [21]) of 35.06%. It also gave an Activity (A549 [22]) of 8.86%, a viability at 10 µM (NCI-H460 [23]) of 91% and an Activity (NCI-H460 [24]) of 0.36%. For the same molecule, the Activity (NCI-H460 [25]) was 6.97%, the Activity (NCI-H460 [26]) was 1.67% and the viability at 30 µM (NCI-H460 [27]) was 74%. The Activity (NCI-H460 [28]) was 1.97%.
